Laboratory results published in PMC10218007, “Potential Clinically Relevant Effects of Sialylation on Human Serum AAG-Drug Interactions Assessed by Isothermal Titration Calorimetry: Insight into Pharmacoglycomics?” (International Journal of Molecular Sciences, 2023).
Where a name gives a salt, the structure may show the parent alone.

Legend:
[1] = cited from earlier work; for pKa: ref (5) lidocaine and diltiazem, (6) clindamycin, (7) warfarin
AAG + s or AAG − s = settings: calculated; for Decrease of free drug concentration, AAG − s vs AAG + s, in the presence of HSA: with 0.64 mM HSA, depending on the conditions
Excerpt: AAG is an acute-phase protein with variable concentration in plasma and this consequently affects the free drug concentration. Hyperquad simulation and speciation software (HySS 4.0.31) was used to calculate the fraction of free vs. bound drug by solving the mass balance equations using the measured binding affinities. […] The plasma concentrations of the drug vary over time depending on the dosing regimen, and steady–state concentrations were used in the model.
In addition to AAG, human serum albumin (HSA) also plays a critical role in drug binding due to its high plasma concentration. Therefore, to obtain more realistic estimates, the free drug concentration was calculated taking into account the available data on the binding of the studied drugs to HSA.

[2] = biological target: Desialylated human AAG (AAG − s) (Homo sapiens, UniProt P02763); assay: ITC titration of desialylated AAG (AAG − s) with drugs; format: binding; settings: 310 K
Description: (§1) All chemicals were used without further purification. Immobilized SialEXO® (derived from Akkermansia muciniphilla and expressed in E. Coli) was obtained from Smart Enzymes™ Genovis (Lund, Sweden), and HEPES buffer was obtained from VWR International (Leuven, Belgium). All other reagents were of analytical grade or better. All solutions were prepared immediately before the experiments in order to minimize contamination and/or impair the stability of solutions. The solutions for microcalorimetric titrations were prepared in 25 mM HEPES at pH 7.40 containing 150 mM NaCl (Kemika, Zagreb, Croatia), using doubly distilled water and 5 M NaOH (Kemika, Zagreb, Croatia) for adjusting the pH value. AAG and drug solutions were prepared by dissolving the appropriate amount of solid in the given solvent.
The ITC titrations were performed on a MicroCal PEAQ–ITC calorimeter (Malvern Panalytical Ltd., Malvern, UK). The solutions were thoroughly degassed beforehand, under vacuum to avoid any formation of bubbles that might be present in the sample cell. All microcalorimetric measurements were performed at 37 °C. […]
(§2) All ITC data were analyzed with MicroCal PEAQ-ITC Analysis Software 1.30 using the One Set Sites Fitting Model. […] All p values were calculated using the t-test() function in Microsoft Excel (Microsoft Corporation, Redmond, WA, USA).

[3] = biological target: Native human AAG (AAG + s) (Homo sapiens, UniProt P02763); assay: ITC titration of native AAG (AAG + s) with drugs; format: binding; settings: 310 K
Description: as §1
The ITC titrations were performed on a MicroCal PEAQ–ITC calorimeter (Malvern Panalytical Ltd., Malvern, UK). The solutions were thoroughly degassed beforehand, under vacuum to avoid any formation of bubbles that might be present in the sample cell. All microcalorimetric measurements were performed at 37 °C. The volume of the sample cell was approximately 200 μ L and the volume of the burette (syringe) was 42 μ L. Each titration was performed in duplicate or triplicate. Blank experiments were performed to estimate corrections for the dilution heat.
AAG solution (100 – 200 μ M) was loaded into the sample cell using a calibrated syringe (1 mL Hamilton) and titrated with 1 – 2 mM drug solutions. The sample cell was continuously stirred at 700 rpm. Differential power (DP) is arbitrarily applied to each titration. The interval between successive injections was 200 s, which is long enough for the signal to return to its baseline and to ensure equilibrium after each addition. Double distilled water was present in the reference cell during all experiments. To correct for the thermal effect, control titrations were performed for drug solution in buffer under the same conditions as the AAG–drug titrations and dilution heat was subtracted from the AAG–drug titration data.
as §2

[4] = ref 46 lidocaine, 47 diltiazem, 48 clindamycin, 49 warfarin, cited from earlier work; for Cmax: usual therapeutic peak plasma level
AAG+s = settings: log Ka = log (1/KD), KD in M; ref (2) lidocaine, (3) warfarin, (4) clindamycin; cited from earlier work

Sequence of Native human AAG (AAG + s) (P02763 19-201): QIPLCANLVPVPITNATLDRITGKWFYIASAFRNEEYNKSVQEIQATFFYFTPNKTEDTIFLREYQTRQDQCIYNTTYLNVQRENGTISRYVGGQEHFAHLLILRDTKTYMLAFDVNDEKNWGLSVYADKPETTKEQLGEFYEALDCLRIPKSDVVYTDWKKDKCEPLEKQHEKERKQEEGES
Sequence of Desialylated human AAG (AAG − s) (P02763 19-201): as above

Molecule	pKa [1]	Decrease of free plasma concentration with AAG − s vs AAG + s (AAG + s or AAG − s; AAG only, no HSA)	N (number of drug binding sites), AAG − s [2]	N (number of drug binding sites), AAG + s [3]	Δr S°, AAG + s [3] [J K^−1 mol^−1]	Cmax [4] [µM]	Decrease of free drug concentration, AAG − s vs AAG + s, in the presence of HSA (AAG + s or AAG − s)	Ctrough ([4]; usual therapeutic trough plasma level) [µM]	Reference AAG+s log KA (AAG+s)	Fraction present in protonated form ([1]; at the measured pH (7.40))
COc1ccc([C@@H]2Sc3ccccc3N(CCN(C)C)C(=O)[C@@H]2OC(C)=O)cc1 [Diltiazem, diltiazem hydrochloride]	8.03	20–30%	0.868 ± 0.0290	0.804 ± 0.238	7.80 ± 1.74	0.44				
CCN(CC)CC(=O)Nc1c(C)cccc1C [Lidocaine, lidocaine]							10% to 40	6.40		
CC(=O)CC(c1ccccc1)c1c(O)c2ccccc2oc1=O (stereo not shown) [Warfarin, Warfarin sodium salt]	4.99		0.795 ± 0.0290	0.654 ± 0.117	−191± 5.42	9.08	10% to 40		5.34	
clindamycin phosphate										about 30%
